Tested on: SH-SY5Y human neuroblastoma cells
Assay: Neurite outgrowth (neuritic process length) of NGF-differentiated SH-SY5Y cells
Type: cell-based
Description: Cell cultures. SH-SY5Y human neuroblastoma cells were maintained in DMEM medium (GIBCO) supplemented with 10% fetal calf serum (SIGMA), 50 IU/mL penicillin, and […] streptomycin (GIBCO) at 37° C. in 7% CO^2. Cells were plated in six-well plates at 1×10^6 cells/well and treated with […] aphidicolin (SIGMA). At five days, cells were washed, treated with nerve growth factor (NGF) (Boehringer Mannheim, Indianapolis, Ind.) at 10 ng/mL (to induce process outgrowth) in the presence or absence of FK506 (1 and 10 nM) (Calbiochem-Novabiochem Int'l., La Jolla, Calif.) and/or geldanamycin (0.1, 1, and 10 nM) (Calbiochem-Novabiochem, La Jolla, Calif.). Media was changed at 96 hours and replaced with fresh media with the compounds (NGF plus FK506 and/or geldanamycin) for an additional 72 hours (total time, 168 hours). The top 50% of axonal lengths were selected for statistical analysis. All experiments were run in duplicate wells and repeated at least twice for reproducibility.
Light morphometry of neurite lengths. For analysis of process length, cells 20 fields per well) were randomly photographed at 72 and 168 hours. Neurite lengths were measured on photographic prints using a Houston Instrument HI-PAD digitizing tablet connected to an IBM XT computer with appropriate software (Bioquant IV, R&M Biometrics, Nashville, Tenn.); only those processes greater than two times the cell body length were measured. Data from identically treated wells were not different and were therefore combined. […] Histograms were compared using a Mann-Whitney U test, which makes no assumptions about the shape of the distribution.
Preparation of FK506 and geldanamycin. FK506 (mol. wt. 822) and geldanamycin (mol. wt. 561) were dissolved in DMEM medium.
In a first set of experiments, SH-SY5Y neuroblastoma cells were plated in 6-well plates with DMEM plus 15% FCS and differentiated with NGF (10 ng/ml). The effects of various concentrations of geldanamycin and FK506 on neurite growth, alone and in combination, were tested.

For C=CC[C@@H]1/C=C(\C)C[C@H](C)C[C@H](OC)[C@H]2O[C@@](O)(C(=O)C(=O)N3CCCC[C@H]3C(=O)O[C@H](/C(C)=C/[C@@H]3CC[C@@H](O)[C@H](OC)C3)[C@H](C)[C@@H](O)CC1=O)[C@H](C)C[C@@H]2OC [FK506], the Mean Length of Top 50% of Neuritic Processes (Table 1, FK506 10 nM + NGF 10 ng/mL, 168 hours) was 77.8 µm, the Mean Length of Top 50% of Neuritic Processes (Table 2, FK506 1 nM + NGF 10 ng/mL, 168 hours) was 89.9 µm and the Mean Length of Top 50% of Neuritic Processes (Table 2, FK506 10 nM + NGF 10 ng/mL, 168 hours) was 82.7 µm.

In the case of COC1=C2C[C@@H](C)C[C@H](OC)[C@H](O)[C@@H](C)/C=C(\C)[C@H](OC(N)=O)[C@@H](OC)/C=C\C=C(/C)C(=O)NC(=CC1=O)C2=O [Geldanamycin, geldanamycin], the Mean Length of Top 50% of Neuritic Processes (Table 1, geldanamycin 1 nM + NGF 10 ng/mL, 168 hours) is reported as 64 µm, the Mean Length of Top 50% of Neuritic Processes (Table 1, geldanamycin 10 nM + NGF 10 ng/mL, 168 hours) is reported as 54.8 µm and the Mean Length of Top 50% of Neuritic Processes (Table 2, geldanamycin 0.1 nM + NGF 10 ng/mL, 168 hours) is reported as 98.1 µm. For the same molecule, the “effect on length of the processes” value (first set, geldanamycin 10 nM in the presence of NGF) was “no effect”.

With estrogen the “effect on neurite outgrowth with FK506” value (10 nM with FK506 10 nM) was “additive effect” and the “neurite outgrowth” value (10 nM, without NGF) was “increased neurite outgrowth”.

B1: NGF: nerve growth factor (Boehringer Mannheim), used to induce process outgrowth (protein, UniProt P01139 122-241, looked up)
Beta-nerve growth factor: SSTHPVFHMGEFSVCDSVSVWVGDKTTATDIKGKEVTVLAEVNINNSVFRQYFFETKCRASNPVESGCRGIDSKHWNSYCTTTHTFVKALTTDEKQAAWRFIRIDTACVCVLSRKATRRG
In the case of B1, the Mean Length of Top 50% of Neuritic Processes (Table 1 (first set), NGF 10 ng/mL only, 168 hours after treatment) is reported as 54 µm, the Mean Length of Top 50% of Neuritic Processes (Table 2 (second set), NGF 10 ng/mL only, 168 hours) is reported as 70.4 µm and the “mean length of the processes compared to untreated cells” value (first set, NGF 10 ng/mL, 168 hours) is reported as “more than doubled”. The “mean neuritic lengths compared to untreated control cells” value (second set, NGF-treated cells) was “more than double”.

Reference: patent US6881409B2, “Compositions and methods for promoting nerve regeneration” (Oregon Health and Science University, priority 1997, dated 2005)
